This is an account of results in US12533313B2, “Inhalable liposomal sustained release composition for use in treating pulmonary diseases” (INSPIRMED CORP., priority 2018, dated 2026).

One data set relates to C57BL/6 mice. As to the kind of experiment: Observations of mice (mortality) during lung retention study. Format: in vivo. To be noted: healthy mice, IT 50 μL, 3.74 mg/mL nintedanib. As for the experimental part:
(§1) A lung retention study of liposomal TKI in healthy mice was conducted to compare the residence times of free form versus liposomal TKI formulations in the mouse lung.

A short description of data set [1]: Lung retention of nintedanib in an IPF animal model. The settings on record: fibrotic mice, once-daily oral dosing of 60 mg/kg. Format: in vivo. The procedure: First, pulmonary fibrosis was induced by IT instillation of 2.5 mg/kg bleomycin to each mouse. […] Q2D×2 signifies one dose administered every other day for a total of two doses. Blood and lung tissue samples were collected at predetermined time points (Table 7).

Another data set concerns IPF. The settings on record: cited from earlier work.
Data set [2] can be described thus: Lung retention study of liposomal TKI in healthy mice. Format: in vivo. The settings on record: IT, 3.74 mg/mL, after two hours. As for the experimental part: as §1
Data set [3] has as its system bleomycin-induced pulmonary fibrosis in mice. The experiment in a line: Efficacy of liposomal and oral nintedanib in an IPF animal model, histopathological evaluation of lung tissue. Format: in vivo. The settings on record: 60 mg/kg, oral, QD ×10, Day 21, listed as free nintedanib. As for the experimental part:
Q2D×4 signifies one dose administered every other day on day 7, 9, 15, and 17. QD×10 signifies mice received once daily dosing on day 7, 8, 9, 10, 11, 14, 15, 16, 17, and 18. Blood and lung tissue samples were collected on day 21.
Efficacy was determined by histopathological evaluation of mouse lung tissue.
Degree of lesions stained with HE was graded from one to five depending on severity: […]

Several values for one entry are separate records, joined by “and”; a condition that tells them apart may be missing. Equal values may be shown once.

As for `COC(=O)c1ccc2c(c1)NC(=O)/C2=C(\Nc1ccc(N(C)C(=O)CN2CCN(C)CC2)cc1)c1ccccc1` [nintedanib], the “Observation of surviving mice” value in the data set with C57BL/6 mice is reported as “mice were very weak)”. Also, the Mortality in the data set with C57BL/6 mice (deaths/mice) is 2/9 (the 7 surviving. For the same compound, the “Drug retention in mouse lung” value in data set [1] is “no nintedanib was detected in lung tissue after just a few hours”. Further, the “Undesired side effects of oral treatment” value with IPF (current therapeutic amount) is “diarrhea (most frequent adverse event), nausea, stomach pain, liver problems, vomiting, decreased appetite, headache, weight loss, and high blood pressure”. In the data set on IPF (oral, 150 mg twice a day, clinical trials), the “Reduction of lung function decline (increased forced vital capacity) compared to placebo” value was “approximately 50%”. In data set [2], the “Drug retained in the lung” value is listed as “almost none of the drug was retained in the lung”. In data set [3] (per animal (No. 4 to 6)), the “Mean score (fibrosis)” value was ~2 and 2.0 and 1.4. Also, the “Interstitial and subpleural, multifocal fibrosis scores” value in data set [3] (single scores per animal (No. 4 to 6)) was 2 (2=slight (1-25%)) (12×) and 1 (1=minimal (<1%)) (3×).
